Measurements taken from patent publication US12258327B2, “5-membered heteroaryl-containing aminopyridine compounds as EGFR inhibitors” (YUHAN CORPORATION, priority 2021, dated 2025).
Where two headings read alike, the source gives them in different places.

Legend:
EGFR L858R/T790M/C797S = EGFR L858R/T790M/C797S (Homo sapiens, UniProt P00533, C797S/L858R/T790M); experiment: Biochemical EGFR kinase assay (Lance Ultra TR-FRET), triple mutant L858R/T790M/C797S
Procedure: (§1) Biochemical EGFR kinase assays were conducted using Lance Ultra time-resolved fluorescence resonance energy transfer (TR-FRET) technology from Perkin-Elmer. Compounds of the invention were initially diluted to 20 mM in 100% DMSO for storage and made into kinase buffer solution to create a compound concentration ranging from 0.003 μM and 10 μM.
(§2) Each kinase reactions were incubated at room temperature for 1 hour and then stopped by the addition of 4 μL of stop solution (10 mM EDTA). The specific Europium-labeled-anti-phosphopeptide antibody (PerkinElmer, AD0069) diluted in LANCE detection buffer was then added to a final concentration of 2 nM. After 60 minutes incubation at room temperature the LANCE signal was measured on an EnVision Multilabel Reader (Perkin-Elmer). Excitation wavelength was set at 320 nm and emission monitored at 615 nm (donor) and 665 nm (acceptor). The IC50 values were determined using GraphPad prism software (GraphPad Software, Inc., San Diego, CA, USA).

EGFR wildtype (WT) = EGFR wildtype (WT) (Homo sapiens, UniProt P00533); experiment: Biochemical EGFR kinase assay (Lance Ultra TR-FRET), wildtype
Procedure: as §1, §2

EGFR del19/C797S = EGFR del19/C797S (Homo sapiens, UniProt P00533, C797S/DEL746-750); experiment: Biochemical EGFR kinase assay (Lance Ultra TR-FRET), double mutant del19/C797S
Procedure: as §1, §2

EGFR del19/T790M/C797S = EGFR del19/T790M/C797S (Homo sapiens, UniProt P00533, C797S/DEL746-750/T790M); experiment: Biochemical EGFR kinase assay (Lance Ultra TR-FRET), triple mutant del19/T790M/C797S
Procedure: as §1, §2

EGFR L858R/C797S = EGFR L858R/C797S (Homo sapiens, UniProt P00533, C797S/L858R); experiment: Biochemical EGFR kinase assay (Lance Ultra TR-FRET), double mutant L858R/C797S
Procedure: as §1, §2

[1] = Km ATP, read-out: IC50 L858R/T790M/C797S (nM) Km ATP
[2] = Km ATP, read-out: IC50 WT (nM) Km ATP
[3] = Km ATP, read-out: IC50 del19/C797S (nM) Km ATP
[4] = Km ATP, read-out: IC50 del19/T790M/C797S (nM) Km ATP
[5] = IC50 L858R/C797S (nM) 100 μM ATP, 100 μM ATP
[6] = IC50 L858R/T790M/C797S (nM) 100 μM ATP, 100 μM ATP
[7] = IC50 WT (nM) 100 μM ATP, 100 μM ATP
[8] = IC50 del19/C797S (nM) 100 μM ATP, 100 μM ATP
[9] = Km ATP, read-out: IC50 L858R/C797S (nM) Km ATP
[10] = Km ATP, read-out: IC50 L858R/T790M/C797S, Km ATP
[11] = Km ATP, read-out: IC50 WT, Km ATP
[12] = Km ATP, read-out: IC50 del19/C797S, Km ATP
[13] = Km ATP, read-out: IC50 L858R/C797S, Km ATP

Sequence of EGFR wildtype (WT) (P00533 25-1210): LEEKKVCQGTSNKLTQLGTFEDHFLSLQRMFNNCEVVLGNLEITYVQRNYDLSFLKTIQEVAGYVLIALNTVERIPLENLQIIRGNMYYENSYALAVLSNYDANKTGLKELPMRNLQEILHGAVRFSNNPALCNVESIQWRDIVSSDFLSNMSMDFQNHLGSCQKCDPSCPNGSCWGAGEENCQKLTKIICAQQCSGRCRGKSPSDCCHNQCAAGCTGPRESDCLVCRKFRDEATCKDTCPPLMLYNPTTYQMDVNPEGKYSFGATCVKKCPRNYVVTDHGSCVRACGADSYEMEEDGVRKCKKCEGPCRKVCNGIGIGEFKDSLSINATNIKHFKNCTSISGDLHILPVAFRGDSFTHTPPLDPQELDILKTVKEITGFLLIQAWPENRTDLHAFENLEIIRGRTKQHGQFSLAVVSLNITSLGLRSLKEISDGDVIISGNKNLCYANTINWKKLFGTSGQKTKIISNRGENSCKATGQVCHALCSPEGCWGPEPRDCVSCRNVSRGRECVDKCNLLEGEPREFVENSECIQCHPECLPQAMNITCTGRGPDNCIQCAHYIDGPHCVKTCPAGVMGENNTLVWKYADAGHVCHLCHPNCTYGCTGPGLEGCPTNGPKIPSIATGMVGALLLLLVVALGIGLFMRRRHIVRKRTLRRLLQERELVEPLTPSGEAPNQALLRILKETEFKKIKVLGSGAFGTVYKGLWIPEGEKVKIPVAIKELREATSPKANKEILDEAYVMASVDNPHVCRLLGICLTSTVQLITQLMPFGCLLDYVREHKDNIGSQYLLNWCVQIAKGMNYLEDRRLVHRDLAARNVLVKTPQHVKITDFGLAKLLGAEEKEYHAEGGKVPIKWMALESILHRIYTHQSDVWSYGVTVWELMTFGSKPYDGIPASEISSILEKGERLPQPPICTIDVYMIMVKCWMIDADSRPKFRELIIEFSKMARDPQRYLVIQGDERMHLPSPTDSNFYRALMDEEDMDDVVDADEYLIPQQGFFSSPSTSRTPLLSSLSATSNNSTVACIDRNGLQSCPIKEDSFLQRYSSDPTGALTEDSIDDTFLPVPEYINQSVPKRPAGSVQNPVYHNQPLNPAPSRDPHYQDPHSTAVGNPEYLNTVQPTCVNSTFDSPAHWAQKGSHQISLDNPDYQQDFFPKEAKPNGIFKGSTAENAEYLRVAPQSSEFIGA
Sequence of EGFR L858R/C797S (P00533 25-1210 C797S/L858R): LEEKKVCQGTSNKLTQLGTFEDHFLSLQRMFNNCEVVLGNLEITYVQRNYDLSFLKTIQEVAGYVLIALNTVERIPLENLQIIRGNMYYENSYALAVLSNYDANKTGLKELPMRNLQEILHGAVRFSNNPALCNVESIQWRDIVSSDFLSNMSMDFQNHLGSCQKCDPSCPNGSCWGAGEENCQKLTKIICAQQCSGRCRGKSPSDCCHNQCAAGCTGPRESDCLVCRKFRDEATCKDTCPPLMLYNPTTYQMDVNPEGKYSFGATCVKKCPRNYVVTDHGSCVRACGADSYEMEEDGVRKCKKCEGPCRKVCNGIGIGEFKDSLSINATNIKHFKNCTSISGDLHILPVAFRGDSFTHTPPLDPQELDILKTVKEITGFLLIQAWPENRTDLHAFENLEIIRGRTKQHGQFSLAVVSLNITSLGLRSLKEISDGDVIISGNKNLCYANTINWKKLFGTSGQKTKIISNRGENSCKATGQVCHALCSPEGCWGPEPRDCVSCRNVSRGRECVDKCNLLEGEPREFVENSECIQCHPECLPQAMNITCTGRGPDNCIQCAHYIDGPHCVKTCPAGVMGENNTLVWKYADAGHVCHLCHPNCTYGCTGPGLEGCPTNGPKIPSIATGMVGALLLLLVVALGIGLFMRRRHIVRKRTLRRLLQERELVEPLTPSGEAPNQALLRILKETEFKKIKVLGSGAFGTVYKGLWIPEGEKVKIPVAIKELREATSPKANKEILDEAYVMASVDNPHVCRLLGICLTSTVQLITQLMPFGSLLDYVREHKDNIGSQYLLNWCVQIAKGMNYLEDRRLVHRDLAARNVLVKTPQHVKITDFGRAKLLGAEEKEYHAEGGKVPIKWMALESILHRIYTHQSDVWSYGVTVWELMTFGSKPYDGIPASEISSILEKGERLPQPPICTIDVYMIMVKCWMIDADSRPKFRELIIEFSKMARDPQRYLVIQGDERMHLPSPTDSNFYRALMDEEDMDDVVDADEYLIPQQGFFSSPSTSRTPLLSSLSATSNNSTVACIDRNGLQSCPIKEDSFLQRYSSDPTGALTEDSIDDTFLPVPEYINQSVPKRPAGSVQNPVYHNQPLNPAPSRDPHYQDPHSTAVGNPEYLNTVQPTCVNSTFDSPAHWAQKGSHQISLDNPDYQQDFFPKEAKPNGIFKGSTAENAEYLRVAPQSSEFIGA
Sequence of EGFR del19/C797S (P00533 with tags, fused parts or gaps DEL746-750/C797S): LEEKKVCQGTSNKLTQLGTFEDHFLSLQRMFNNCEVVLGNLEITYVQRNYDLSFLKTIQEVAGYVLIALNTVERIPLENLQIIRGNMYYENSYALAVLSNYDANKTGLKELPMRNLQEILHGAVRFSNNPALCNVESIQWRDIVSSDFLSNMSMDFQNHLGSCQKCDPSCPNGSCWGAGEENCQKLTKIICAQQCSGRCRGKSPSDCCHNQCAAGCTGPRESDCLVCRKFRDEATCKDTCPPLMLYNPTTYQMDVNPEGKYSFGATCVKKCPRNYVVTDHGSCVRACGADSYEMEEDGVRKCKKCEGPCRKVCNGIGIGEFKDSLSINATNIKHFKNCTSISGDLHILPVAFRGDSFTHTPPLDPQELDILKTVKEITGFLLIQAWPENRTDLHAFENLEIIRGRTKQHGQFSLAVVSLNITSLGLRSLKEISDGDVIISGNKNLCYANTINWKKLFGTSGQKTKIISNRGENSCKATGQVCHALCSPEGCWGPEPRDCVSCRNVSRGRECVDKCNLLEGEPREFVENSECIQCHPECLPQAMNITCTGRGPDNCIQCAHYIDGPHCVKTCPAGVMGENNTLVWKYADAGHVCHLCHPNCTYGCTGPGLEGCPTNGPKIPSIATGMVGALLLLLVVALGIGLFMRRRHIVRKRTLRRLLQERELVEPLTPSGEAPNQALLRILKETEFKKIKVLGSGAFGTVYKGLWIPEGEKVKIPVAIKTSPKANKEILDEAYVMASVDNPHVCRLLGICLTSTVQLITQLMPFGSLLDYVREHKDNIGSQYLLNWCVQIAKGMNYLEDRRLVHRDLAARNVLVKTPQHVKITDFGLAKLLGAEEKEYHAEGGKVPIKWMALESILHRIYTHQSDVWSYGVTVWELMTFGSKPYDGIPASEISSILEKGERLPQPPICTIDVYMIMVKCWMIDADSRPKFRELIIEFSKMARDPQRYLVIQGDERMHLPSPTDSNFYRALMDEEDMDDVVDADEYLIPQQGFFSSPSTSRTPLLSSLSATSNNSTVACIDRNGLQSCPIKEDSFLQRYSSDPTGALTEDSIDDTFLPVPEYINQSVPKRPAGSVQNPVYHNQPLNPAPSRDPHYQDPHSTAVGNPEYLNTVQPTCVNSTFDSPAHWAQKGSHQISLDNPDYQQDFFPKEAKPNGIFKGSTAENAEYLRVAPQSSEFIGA
Sequence of EGFR L858R/T790M/C797S (P00533 25-1210 T790M/C797S/L858R): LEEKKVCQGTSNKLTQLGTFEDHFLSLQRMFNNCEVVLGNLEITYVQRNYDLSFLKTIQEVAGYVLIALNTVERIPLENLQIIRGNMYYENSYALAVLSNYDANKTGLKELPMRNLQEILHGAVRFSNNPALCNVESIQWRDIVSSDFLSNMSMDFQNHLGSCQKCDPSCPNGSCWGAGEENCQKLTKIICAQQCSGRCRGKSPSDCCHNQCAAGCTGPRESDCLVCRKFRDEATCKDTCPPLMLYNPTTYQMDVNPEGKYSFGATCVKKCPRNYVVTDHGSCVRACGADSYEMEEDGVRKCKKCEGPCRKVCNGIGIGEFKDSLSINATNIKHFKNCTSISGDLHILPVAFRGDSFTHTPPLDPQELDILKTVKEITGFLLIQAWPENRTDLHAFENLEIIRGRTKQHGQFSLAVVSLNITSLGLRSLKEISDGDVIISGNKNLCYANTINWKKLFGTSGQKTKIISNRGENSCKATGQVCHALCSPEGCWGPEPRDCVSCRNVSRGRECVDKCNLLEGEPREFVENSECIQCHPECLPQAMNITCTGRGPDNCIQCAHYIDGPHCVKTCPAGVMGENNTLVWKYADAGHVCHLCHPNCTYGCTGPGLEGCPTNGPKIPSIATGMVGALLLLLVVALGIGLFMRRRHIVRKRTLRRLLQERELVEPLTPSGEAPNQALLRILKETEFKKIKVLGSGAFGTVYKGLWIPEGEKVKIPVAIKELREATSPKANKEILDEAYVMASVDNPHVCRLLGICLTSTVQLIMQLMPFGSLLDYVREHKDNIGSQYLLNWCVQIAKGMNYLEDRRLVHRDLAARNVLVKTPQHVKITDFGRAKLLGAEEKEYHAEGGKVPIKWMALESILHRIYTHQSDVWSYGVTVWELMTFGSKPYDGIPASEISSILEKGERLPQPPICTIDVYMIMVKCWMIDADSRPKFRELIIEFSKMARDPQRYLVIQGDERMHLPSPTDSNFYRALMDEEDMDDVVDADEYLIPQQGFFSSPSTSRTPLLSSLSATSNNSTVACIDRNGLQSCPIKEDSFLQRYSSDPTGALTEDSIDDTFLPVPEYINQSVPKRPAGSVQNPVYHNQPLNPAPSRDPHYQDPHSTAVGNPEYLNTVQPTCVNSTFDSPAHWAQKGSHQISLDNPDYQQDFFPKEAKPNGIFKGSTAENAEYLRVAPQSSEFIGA

| IC50 (EGFR L858R/T790M/C797S; [1]) [nM] | IC50 (EGFR wildtype (WT); [2]) [nM] | IC50 (EGFR del19/C797S; [3]) [nM] | IC50 (EGFR del19/T790M/C797S; [4]) [nM] | IC50 (EGFR L858R/C797S; [5]) [nM] | IC50 (EGFR wildtype (WT); [7]) [nM] | IC50 (EGFR del19/C797S; [8]) [nM] | SMILES | further results |
| --- | --- | --- | --- | --- | --- | --- | --- | --- |
| 5.9 | 88.5 | 63 | 99 |  |  |  | Cn1cc(C#Cc2cc(Nc3ccnc(-c4cnn(S(=O)(=O)C5CC5)c4)n3)ncc2-c2cnn(C3CC3)c2)cn1 [Example 1, N-(5-(1-Cyclopropyl-1H-pyrazol-4-yl)-4-((1-methyl-1H-pyrazol-4-yl)ethynyl)pyridin-2-yl)-2-(1-(cyclopropylsulfonyl)-1H-pyrazol-4-yl)pyrimidin-4-amine] |  |
|  | 229 | 39.7 | 6.4 |  |  |  | Cn1cc(C#Cc2cc(Nc3ccnc(-c4cnn(S(=O)(=O)C5CC5)c4)n3)ncc2-c2cnn(CC3CC3)c2)cn1 [Example 3, N-(5-(1-(Cyclopropylmethyl)-1H-pyrazol-4-yl)-4-((1-methyl-1H-pyrazol-4-yl)ethynyl)pyridin-2-yl)-2-(1-(cyclopropylsulfonyl)-1H-pyrazol-4-yl)pyrimidin-4-amine] |  |
| 13.2 |  | 317 | 10.6 |  |  |  | O=S(=O)(C1CC1)n1cc(-c2nccc(Nc3cc(C#Cc4cnn(C5CC5)c4)c(-c4cnn(C5CC5)c4)cn3)n2)cn1 [Example 5, N-(5-(1-Cyclopropyl-1H-pyrazol-4-yl)-4-((1-cyclopropyl-1H-pyrazol-4-yl)ethynyl)pyridin-2-yl)-2-(1-(cyclopropylsulfonyl)-1H-pyrazol-4-yl)pyrimidin-4-amine] |  |
| 19.5 |  | 347 | 16.1 |  |  |  | CC(C)n1cc(C#Cc2cc(Nc3ccnc(-c4cnn(S(=O)(=O)C5CC5)c4)n3)ncc2-c2cnn(C3CC3)c2)cn1 [Example 6, N-(5-(1-Cyclopropyl-1H-pyrazol-4-yl)-4-((1-isopropyl-1H-pyrazol-4-yl)ethynyl)pyridin-2-yl)-2-(1-(cyclopropylsulfonyl)-1H-pyrazol-4-yl)pyrimidin-4-amine] |  |
|  |  |  |  | 2.7 | 1060 | 3.2 | C[C@]1(O)CC[C@@H](Nc2cc(Nc3ccnc(-c4cnn(S(=O)(=O)C5CC5)c4)n3)ncc2-c2ccn(C(F)F)n2)CC1 [Example 10, (1s,4s)-4-((2-((2-(1-(Cyclopropylsulfonyl)-1H-pyrazol-4-yl)pyrimidin-4-yl)amino)-5-(1-(difluoromethyl)-1H-pyrazol-3-yl)pyridin-4-yl)amino)-1-methylcyclohexan-1-ol] | IC50 (EGFR L858R/T790M/C797S; [6]): 1.3 nM |
| 0.7 | 4.4 | 1.8 |  | 7.7 | > 10000 | 2.2 | O=S(=O)(C1CC1)n1cc(-c2nccc(Nc3cc(N[C@H]4CC[C@@H](NCC(F)F)CC4)c(-c4cc5n(n4)CCCC5)cn3)n2)cn1 [Example 63, N^2-(2-(1-(Cyclopropylsulfonyl)-1H-pyrazol-4-yl)pyrimidin-4-yl)-N^4-((1s,4s)-4-((2,2-difluoroethyl)amino)cyclohexyl)-5-(4,5,6,7-tetrahydropyrazolo[1,5-a]pyridin-2-yl)pyridine-2,4-diamine] | IC50 (EGFR L858R/C797S; [9]): 2.2 nM; IC50 (EGFR L858R/T790M/C797S; [6]): 3.3 nM |
|  |  |  |  | 15.7 | > 10000 | 5.3 | CC(C)(O)c1nc(-c2cnc(Nc3ccnc(-c4cnn(S(=O)(=O)C5CC5)c4)n3)cc2N[C@H]2CC[C@@](C)(O)CC2)cs1 [Example 93, (1s,4s)-4-((2-((2-(1-(Cyclopropylsulfonyl)-1H-pyrazol-4-yl)pyrimidin-4-yl)amino)-5-(2-(2-hydroxypropan-2-yl)thiazol-4-yl)pyridin-4-yl)amino)-1-methylcyclohexan-1-ol] | IC50 (EGFR del19/T790M/C797S; IC50 del19/T790M/C797S (nM) 100 μM ATP, 100 μM ATP): 4 nM |
| 0.5 | 5.7 | 0.7 |  | 58 | > 10000 | 1.1 | O=S(=O)(C1CC1)n1cc(-c2nccc(Nc3cc(N[C@H]4CC[C@@H](CCO)CC4)c(-c4ccn(C(F)F)n4)cn3)n2)cn1 [Example 135, 2-((1s,4s)-4-((2-((2-(1-(Cyclopropylsulfonyl)-1H-pyrazol-4-yl)pyrimidin-4-yl)amino)-5-(1-(difluoromethyl)-1H-pyrazol-3-yl)pyridin-4-yl)amino)cyclohexyl)ethan-1-ol] | IC50 (EGFR L858R/C797S; [9]): 4.5 nM; IC50 (EGFR L858R/T790M/C797S; [6]): 2.1 nM |
| 0.8 | 51.5 | 93.9 |  |  |  |  | OCC[C@H]1CC[C@H](Nc2cc(Nc3ccnc(-c4cnn(CC(F)F)c4)n3)ncc2-c2ccn(C(F)F)n2)CC1 [Example 147, 2-((1r,4r)-4-((2-((2-(1-(2,2-Difluoroethyl)-1H-pyrazol-4-yl)pyrimidin-4-yl)amino)-5-(1-(difluoromethyl)-1H-pyrazol-3-yl)pyridin-4-yl)amino)cyclohexyl)ethan-1-ol] | IC50 (EGFR L858R/C797S; [9]): 32.6 nM |
| 0.5 | 282 | 15.4 | 0.7 |  |  |  | C[C@]1(O)CC[C@@H](Nc2cc(Nc3ccnc(-c4cnn(S(=O)(=O)C5CC5)c4)n3)ncc2-n2ccc(OC(F)F)n2)CC1 [Example 187, (1s,4s)-4-((2-((2-(1-(Cyclopropylsulfonyl)-1H-pyrazol-4-yl)pyrimidin-4-yl)amino)-5-(3-(difluoromethoxy)-1H-pyrazol-1-yl)pyridin-4-yl)amino)-1-methylcyclohexan-1-ol] |  |
|  | 5.9 |  | 3.1 |  | 7310 | 0.9 | C[C@]1(O)CC[C@@H](Nc2cc(Nc3ccnc(-c4cnn(S(=O)(=O)C5CC5)c4)n3)ncc2-c2cn(C(F)F)cn2)CC1 [Example 273, (1s,4s)-4-((2-((2-(1-(Cyclopropylsulfonyl)-1H-pyrazol-4-yl)pyrimidin-4-yl)amino)-5-(1-(difluoromethyl)-1H-imidazol-4-yl)pyridin-4-yl)amino)-1-methylcyclohexan-1-ol] | IC50 (EGFR L858R/T790M/C797S; [6]): 1.3 nM |
| 0.7 | 3.2 | 2.3 |  |  |  |  | C[C@]1(O)CC[C@@H](Nc2cc(Nc3ccnc(-c4cnn(S(=O)(=O)C5CC5)c4)n3)ncc2-c2ccn(C(F)(F)F)n2)CC1 [Example 285, (1s,4s)-4-((2-((2-(1-(Cyclopropylsulfonyl)-1H-pyrazol-4-yl)pyrimidin-4-yl)amino)-5-(1-(trifluoromethyl)-1H-pyrazol-3-yl)pyridin-4-yl)amino)-1-methylcyclohexan-1-ol] | IC50 (EGFR L858R/C797S; [9]): 0.6 nM |
|  | 17.4 |  |  | 27.4 | > 10000 | 2.7 | C[C@]1(O)CC[C@@H](Nc2cc(Nc3ccnc(-c4cnn(S(=O)(=O)C5CC5)c4)n3)ncc2-c2ccn(CC(F)(F)F)n2)CC1 [Example 289, (1s,4s)-4-((2-((2-(1-(Cyclopropylsulfonyl)-1H-pyrazol-4-yl)pyrimidin-4-yl)amino)-5-(1-(2,2,2-trifluoroethyl)-1H-pyrazol-3-yl)pyridin-4-yl)amino)-1-methylcyclohexan-1-ol] |  |
|  |  |  |  |  |  |  | Cn1nc(-c2cnc(Nc3ccnc(-c4cnn(CC(F)F)c4)n3)cc2N[C@H]2CC[C@@H](CCO)CC2)cc1C(F)(F)F [Example 333, 2-((1s,4s)-4-((2-((2-(1-(2,2-Difluoroethyl)-1H-pyrazol-4-yl)pyrimidin-4-yl)amino)-5-(1-methyl-5-(trifluoromethyl)-1H-pyrazol-3-yl)pyridin-4-yl)amino)cyclohexyl)ethan-1-ol] | IC50 (EGFR L858R/T790M/C797S; [10]): 2.9 nM; IC50 (EGFR wildtype (WT); [11]): 61.5 nM; IC50 (EGFR del19/C797S; [12]): 16.5 nM; IC50 (EGFR del19/T790M/C797S; Km ATP, read-out: IC50 del19/T790M/C797S, Km ATP): 4.4 nM |
|  |  |  |  |  |  |  | Cc1nn(CC(F)(F)F)cc1-c1nccc(Nc2cc(N[C@H]3CC[C@@](C)(O)CC3)c(-c3ccn(C(F)(F)F)n3)cn2)n1 [Example 341, (1s,4s)-1-Methyl-4-((2-((2-(3-methyl-1-(2,2,2-trifluoroethyl)-1H-pyrazol-4-yl)pyrimidin-4-yl)amino)-5-(1-(trifluoromethyl)-1H-pyrazol-3-yl)pyridin-4-yl)amino)cyclohexan-1-ol] | IC50 (EGFR L858R/C797S; [13]): 14.8 nM; IC50 (EGFR L858R/T790M/C797S; [10]): 0.9 nM; IC50 (EGFR wildtype (WT); [11]): 48.4 nM; IC50 (EGFR del19/C797S; [12]): 22 nM |
|  |  |  |  |  |  |  | CC(C)(O)[C@H]1CC[C@@H](Nc2nc(Nc3ccnc(-c4cnn(S(=O)(=O)C5CC5)c4)c3)ncc2-c2ccn(C(F)F)n2)CC1 [Example 365, 2-((1s,4s)-4-((2-((2-(1-(Cyclopropylsulfonyl)-1H-pyrazol-4-yl)pyridin-4-yl)amino)-5-(1-(difluoromethyl)-1H-pyrazol-3-yl)pyrimidin-4-yl)amino)cyclohexyl)propan-2-ol] | IC50 (EGFR L858R/C797S; [13]): 48.4 nM; IC50 (EGFR L858R/T790M/C797S; [10]): 2.3 nM; IC50 (EGFR wildtype (WT); [11]): 306 nM; IC50 (EGFR del19/C797S; [12]): 45.4 nM |
